According to patent publication US20210169892A1, “MODULATORS OF THE INTEGRATED STRESS PATHWAY” (Calico Life Sciences LLC, priority 2017, published 2021):

Test system: HEK293T cells carrying the ATF4 luciferase reporter
Assay: ATF4-Luc assay (in vitro model of vanishing white matter disease)
Type: cell-based
Conditions: Homo sapiens, HEK-293T; HEK293T cells with ATF4 luciferase reporter, 1 μg/mL tunicamycin, 7 hours, One Glo luminescence
Description: In order to test exemplary compounds of the invention in a cellular context, a stable VWMD cell line was first constructed. The ATF4 reporter was prepared by fusing the human full-length ATF4 5′-UTR (NCBI Accession No. BC022088.2) in front of the firefly luciferase (FLuc) coding sequence lacking the initiator methionine as described in Sidrauski et al (eLife 2013). The construct was used to produce recombinant retroviruses using standard methods and the resulting viral supernatant was used to transduce HEK293T cells, which were then subsequently selected with puromycin to generate a stable cell line.
HEK293T cells carrying the ATF4 luciferase reporter were plated on polylysine coated 384-well plates (Greiner Bio-one) at 30,000 cells per well. Cells were treated the next day with 1 μg/mL tunicamycin and 200 nM of a compound of Formula (I) for 7 hours. Luminescence was measured using One Glo (Promega) as specified by the manufacturer. Cells were maintained in DMEM with L-glutamine supplemented with 10% heat-inactivated FBS (Gibco) and Antibiotic-Antimycotic solution (Gibco).
Table 2 below summarizes the EC50 data obtained using the ATF4-Luc assay for exemplary compounds of the invention.

First: O=C(COc1ccc(Cl)c(F)c1)NC12CC(NC(=O)C3CN(CCO)c4cc(Cl)ccc4O3)(C1)C2 (stereo not shown) [Compound 135, 6-chloro-N-{3-[2-(4-chloro-3-fluorophenoxy)acetamido]bicyclo[1.1.1]pentan-1-yl}-4-(2-hydroxyethyl)-3,4-dihydro-2H-1,4-benzoxazine-2-carboxamide]
Second: O=C(O)CCN1CC(C(=O)NC23CC(NC(=O)COc4ccc(Cl)c(F)c4)(C2)C3)Oc2ccc(Cl)cc21 (stereo not shown) [Compound 170, 3-[6-chloro-2-({3-[2-(4-chloro-3-fluorophenoxy)acetamido]bicyclo[1.1.1]pentan-1-yl}carbamoyl)-2,3-dihydro-4H-1,4-benzoxazin-4-yl]propanoic acid]
The EC50 of the first is lower: less than 10 nM for the first, 250 to 500 nM for the second. The first is the more potent here.

First: COC(C)(C)CN1CC(C(=O)NC23CC(NC(=O)COc4ccc(Cl)c(F)c4)(C2)C3)Oc2ccc(Cl)cc21 (stereo not shown) [Compound 187, 6-chloro-N-{3-[2-(4-chloro-3-fluorophenoxy)acetamido]bicyclo[1.1.1]pentan-1-yl}-4-(2-methoxy-2-methylpropyl)-3,4-dihydro-2H-1,4-benzoxazine-2-carboxamide]
Second: CSN1CC(C(=O)NC23CC(NC(=O)COc4ccc(Cl)c(F)c4)(C2)C3)Oc2ccc(Cl)cc21 (stereo not shown) [Compound 172, 6-chloro-N-{3-[2-(4-chloro-3-fluorophenoxy)acetamido]bicyclo[1.1.1]pentan-1-yl}-4-(methylsulfanyl)-3,4-dihydro-2H-1,4-benzoxazine-2-carboxamide]
The EC50 of the first is higher: 10 to 50 nM for the first, less than 10 nM for the second. The second is the more potent here.

First: Cc1cc(S(=O)(=O)N2CC(C(=O)NC34CC(NC(=O)COc5ccc(Cl)c(F)c5)(C3)C4)Oc3ccc(Cl)cc32)c(C(F)(F)F)o1 (stereo not shown) [Compound 163, 6-chloro-N-{3-[2-(4-chloro-3-fluorophenoxy)acetamido]bicyclo[1.1.1]pentan-1-yl}-4-[5-methyl-2-(trifluoromethyl)furan-3-sulfonyl]-3,4-dihydro-2H-1,4-benzoxazine-2-carboxamide]
Second: Cc1nn(C)cc1S(=O)(=O)N1CC(C(=O)NC23CC(NC(=O)COc4ccc(Cl)c(F)c4)(C2)C3)Oc2ccc(Cl)cc21 (stereo not shown) [Compound 173, 6-chloro-N-{3-[2-(4-chloro-3-fluorophenoxy)acetamido]bicyclo[1.1.1]pentan-1-yl}-4-(1,3-dimethyl-1H-pyrazole-4-sulfonyl)-3,4-dihydro-2H-1,4-benzoxazine-2-carboxamide]
The EC50 of the first is higher: greater than 2000 nM for the first, 500 to 2000 nM for the second.

First: O=C(COc1ccc(F)c(F)c1)NC12CC(NC(=O)C3COc4cc(Cl)c(Cl)cc4O3)(C1)C2 (stereo not shown) [Compound 117, 6,7-dichloro-N-{3-[2-(3,4-difluorophenoxy)acetamido]bicyclo[1.1.1]pentan-1-yl}-2,3-dihydro-1,4-benzodioxine-2-carboxamide]
Second: O=C(COc1ccc(Cl)c(F)c1)NC12CC(NC(=O)[C@H]3COc4ccccc4O3)(C1)C2 [Compound 124, (2R)—N-{3-[2-(4-chloro-3-fluorophenoxy)acetamido]bicyclo[1.1.1]pentan-1-yl}-2,3-dihydro-1,4-benzodioxine-2-carboxamide]
The EC50 of the first is lower: less than 10 nM for the first, 10 to 50 nM for the second.

First: O=C(COc1ccc(Cl)c(F)c1)NC12CC(NC(=O)C3CN(C(=O)c4cccc(C(F)(F)F)c4)c4cc(Cl)ccc4O3)(C1)C2 (stereo not shown) [Compound 160, 6-chloro-N-{3-[2-(4-chloro-3-fluorophenoxy)acetamido]bicyclo[1.1.1]pentan-1-yl}-4-[3-(trifluoromethyl)benzoyl]-3,4-dihydro-2H-1,4-benzoxazine-2-carboxamide]
Second: O=C(COc1ccc(Cl)c(F)c1)NC12CC(NC(=O)C3CN(C(=O)CC(F)(F)F)c4cc(Cl)ccc4O3)(C1)C2 (stereo not shown) [Compound 182, 6-chloro-N-{3-[2-(4-chloro-3-fluorophenoxy)acetamido]bicyclo[1.1.1]pentan-1-yl}-4-(3,3,3-trifluoropropanoyl)-3,4-dihydro-2H-1,4-benzoxazine-2-carboxamide]
The EC50 of the first is higher: greater than 2000 nM for the first, 50 to 250 nM for the second. The second is the more potent here.

First: O=C(COc1ccc(Cl)c(F)c1)NC12CCC(NC(=O)C3CC(O)c4cc(Cl)ccc4O3)(CC1)C[C@@H]2O (stereo partly drawn) [Compound 199, 6-chloro-N-{(3S)-4-[2-(4-chloro-3-fluorophenoxy)acetamido]-3-hydroxybicyclo[2.2.2]octan-1-yl}-4-hydroxy-3,4-dihydro-2H-1-benzopyran-2-carboxamide]
Second: CC(C)(C)OC(=O)CN1CC(C(=O)NC23CCC(NC(=O)COc4ccc(Cl)c(F)c4)(CC2)[C@@H](O)C3)Oc2ccc(Cl)cc21 (stereo partly drawn) [Compound 185, tert-butyl [6-chloro-2-({(3S)-4-[2-(4-chloro-3-fluorophenoxy)acetamido]-3-hydroxybicyclo[2.2.2]octan-1-yl}carbamoyl)-2,3-dihydro-4H-1,4-benzoxazin-4-yl]acetate]
The EC50 of the first is lower: less than 10 nM for the first, 50 to 250 nM for the second. The first is the more potent here.

First: O=C(COc1ccc(Cl)c(F)c1)NC12CC(NC(=O)C3Oc4ccccc4NC3=O)(C1)C2 (stereo not shown) [Compound 109, N-{3-[2-(4-chloro-3-fluorophenoxy)acetamido]bicyclo[1.1.1]pentan-1-yl}-3-oxo-3,4-dihydro-2H-1,4-benzoxazine-2-carboxamide]
Second: CS(=O)(=O)N1CC(C(=O)NC23CC(NC(=O)COc4ccc(Cl)c(F)c4)(C2)C3)Oc2ccc(Cl)cc21 (stereo not shown) [Compound 168, 6-chloro-N-{3-[2-(4-chloro-3-fluorophenoxy)acetamido]bicyclo[1.1.1]pentan-1-yl}-4-(methanesulfonyl)-3,4-dihydro-2H-1,4-benzoxazine-2-carboxamide]
The EC50 of the first is higher: 500 to 2000 nM for the first, 50 to 250 nM for the second. The second is the more potent here.

First: COC(=O)CNC1CC(C(=O)NC23CC(NC(=O)COc4ccc(Cl)c(F)c4)(C2)C3)Oc2ccc(Cl)cc21 (stereo not shown) [Compound 189, methyl {[6-chloro-2-({3-[2-(4-chloro-3-fluorophenoxy)acetamido]bicyclo[1.1.1]pentan-1-yl}carbamoyl)-3,4-dihydro-2H-1-benzopyran-4-yl]amino}acetate]
Second: O=C(COc1ccc(Cl)c(F)c1)NC12CC(NC(=O)C3CN(C(=O)CO)c4cc(Cl)ccc4O3)(C1)C2 (stereo not shown) [Compound 136, 6-chloro-N-{3-[2-(4-chloro-3-fluorophenoxy)acetamido]bicyclo[1.1.1]pentan-1-yl}-4-(hydroxyacetyl)-3,4-dihydro-2H-1,4-benzoxazine-2-carboxamide]
The EC50 of the first is higher: 10 to 50 nM for the first, less than 10 nM for the second. The second is the more potent here.

First: O=C(COc1ccc(Cl)c(F)c1)NC12CC(NC(=O)C3CN(C(=O)CCCC(F)(F)F)c4cc(Cl)ccc4O3)(C1)C2 (stereo not shown) [Compound 167, 6-chloro-N-{3-[2-(4-chloro-3-fluorophenoxy)acetamido]bicyclo[1.1.1]pentan-1-yl}-4-(5,5,5-trifluoropentanoyl)-3,4-dihydro-2H-1,4-benzoxazine-2-carboxamide]
Second: O=C(COc1ccc(Cl)c(F)c1)NC12CC(NC(=O)C3CN(C(=O)CCC(F)(F)F)c4cc(Cl)ccc4O3)(C1)C2 (stereo not shown) [Compound 148, 6-chloro-N-{3-[2-(4-chloro-3-fluorophenoxy)acetamido]bicyclo[1.1.1]pentan-1-yl}-4-(4,4,4-trifluorobutanoyl)-3,4-dihydro-2H-1,4-benzoxazine-2-carboxamide]
The EC50 of the first is higher: 250 to 500 nM for the first, 50 to 250 nM for the second.

Compared with `CC1(C(=O)N2CC(C(=O)NC34CC(NC(=O)COc5ccc(Cl)c(F)c5)(C3)C4)Oc3ccc(Cl)cc32)CC1(F)F` (stereo not shown) [Compound 179, 6-chloro-N-{3-[2-(4-chloro-3-fluorophenoxy)acetamido]bicyclo[1.1.1]pentan-1-yl}-4-(2,2-difluoro-1-methylcyclopropane-1-carbonyl)-3,4-dihydro-2H-1,4-benzoxazine-2-carboxamide], `O=C(COc1ccc(Cl)c(F)c1)NC12CC(NC(=O)C3CN(C(=O)c4ccno4)c4cc(Cl)ccc4O3)(C1)C2` (stereo not shown) [Compound 154, 6-chloro-N-{3-[2-(4-chloro-3-fluorophenoxy)acetamido]bicyclo[1.1.1]pentan-1-yl}-4-(1,2-oxazole-5-carbonyl)-3,4-dihydro-2H-1,4-benzoxazine-2-carboxamide] is lower in EC50: 500 to 2000 nM for the first, less than 10 nM for the second. The second is the more potent here.

First: O=C(NC12CC(NC(=O)C3COc4cc(Cl)c(Cl)cc4O3)(C1)C2)c1cnc(C(F)F)cn1 (stereo not shown) [Compound 133, N-{3-[(6,7-dichloro-2,3-dihydro-1,4-benzodioxine-2-carbonyl)amino]bicyclo[1.1.1]pentan-1-yl}-5-(difluoromethyl)pyrazine-2-carboxamide]
Second: O=C(COc1ccc(Cl)c(F)c1)NC12CC(NC(=O)C3CN(C(=O)C4CCOC4)c4cc(Cl)ccc4O3)(C1)C2 (stereo not shown) [Compound 152, 6-chloro-N-{3-[2-(4-chloro-3-fluorophenoxy)acetamido]bicyclo[1.1.1]pentan-1-yl}-4-(oxolane-3-carbonyl)-3,4-dihydro-2H-1,4-benzoxazine-2-carboxamide]
The EC50 of the first is lower: 10 to 50 nM for the first, 250 to 500 nM for the second.

First: O=C(COc1ccc(Cl)c(F)c1)NC12CC(NC(=O)C3CN(C(=O)C4CCOCC4)c4cc(Cl)ccc4O3)(C1)C2 (stereo not shown) [Compound 151, 6-chloro-N-{3-[2-(4-chloro-3-fluorophenoxy)acetamido]bicyclo[1.1.1]pentan-1-yl}-4-(oxane-4-carbonyl)-3,4-dihydro-2H-1,4-benzoxazine-2-carboxamide]
Second: O=C(COc1ccc(Cl)c(F)c1)NC12CCC(NC(=O)[C@H]3CCc4cc(F)ccc4O3)(CC1)[C@@H](O)C2 [Compound 202, (2R)—N-{(2S)-4-[2-(4-chloro-3-fluorophenoxy)acetamido]-2-hydroxybicyclo[2.2.2]octan-1-yl}-6-fluoro-3,4-dihydro-2H-1-benzopyran-2-carboxamide]
The EC50 of the first is higher: 500 to 2000 nM for the first, less than 10 nM for the second.

Work on `O=C(COc1ccc(Cl)c(F)c1)NC12CCC(NC(=O)C3CNc4ccccc4O3)(CC1)C[C@@H]2O` (stereo partly drawn) [Compound 110, N-{(3S)-4-[2-(4-chloro-3-fluorophenoxy)acetamido]-3-hydroxybicyclo[2.2.2]octan-1-yl}-3,4-dihydro-2H-1,4-benzoxazine-2-carboxamide] yielded an EC50 of 10 to 50 nM.
